{"source": "patent US9271916B2", "about": "“Composition for reducing skin wrinkles including PDE5 inhibitor” (SK Chemicals Co., Ltd., priority 2011, dated 2016)", "key": {"[1]": {"test_system": "type I procollagen production in normal human dermal fibroblasts (NHDF, cell line 7F3802)", "assay": "Procollagen type I production in normal human dermal fibroblasts", "format": "cell-based", "details": "48 hours, negative control 100.0±0.0%, p<0.01", "procedure": "Effects by mirodenafil hydrochloride, test compound, on production of type I collagen was evaluated with normal human dermal fibroblasts.\nCell line 7F3802 was used as a normal human dermal fibroblast (hereinafter, ‘NHDF’). Frozen NHDF was thawed and subcultured, and passages 5 to 7 were used for this test.\nL-Ascorbic acid (Sigma-Aldrich Co., U.S.A.) was used as a positive control because there are lots of comparative experimental data using l-ascorbic acid. L-Ascorbic acid has been reported to be effective in acceleration of collagen production when evaluating with fibroblasts. DMSO (Dimethyl sulfoxide) was used as a diluent.\n(§1) 0.01 mL of aliquot was taken from 10 mM of mirodenafil hydrochloride stock solution, and 9.99 mL of DMSO was added to the aliquot to make 10,000 nM of sample. This sample was additionally diluted to 1,000 nM of concentration right before being used. 10,000 nM and 1,000 nM of solutions were diluted 100 times with serum-free medium to […], right before being applied.\nFor making a positive control, 20,000 μM (3.522 mg/mL) of 1-ascorbic acid was prepared by dissolving it with serum-free medium, and then the solution was diluted to 200 μM.\nTwo cell culture media were used in this experiment. Complete medium consisting of FBS (fetal bovine serum), Penicillin-Streptomycin (10,000 U/mL of penicillin and 10,000 ug of streptomycin) and DMEM/F12 (dulbecco's modified eagle's medium/F12) was used during subculture before test compound was applied, and then serum-free medium consisting of Penicillin-Streptomycin and DMEM (dulbecco's modified eagle's medium) was used.\nPre-treatment (cell culture and treatment of test compound) was performed as follows: After culturing in complete medium, 400 μl of NHDF was seeded into 48-well plates (1×10^5 cells/400 μl/well), and cultured at a condition of 37° C. and 5% CO2 incubator (MCO-20AIC, Sanyo, Japan) for 24 hours. After culture was completed, the remaining media were removed from each well. 500 μl of D-PBS (D-phosphate buffered saline) was added to each well to wash wells. […]"}, "[2]": {"test_system": "UVB-induced skin wrinkles", "assay": "Wrinkle reduction in UVB-irradiated hairless mice", "format": "in vivo", "details": "for Wrinkle reduction (skin photographs): 10 mM (about 5%), applied twice daily for 14 days after wrinkle induction", "procedure": "An examination was made as to whether the PDE5 inhibitors can substantially reduce skin wrinkles of animal models. Hairless mice, aged 7 weeks, were irradiated with UVB (290-320 nm, 312 nm) to induce wrinkles. The compound or the control was applied to each mouse and its influence on the induced wrinkles was evaluated. More specifically, the mice were irradiated with 60 mJ/cm^2 (1 minimal […] dose (MED)) for 3 days weekly during the first and second week after wrinkling, 120 mJ/cm^2 (2 MED) for 3 days during the third week after wrinkling, 180 mJ/cm^2 (3 MED) for 3 days during the fourth week after wrinkling, 240 mJ/cm^2 (4 MED) for 3 days weekly during the fifth to eighth week after wrinkling, and 240 mJ/cm^2 (4 MED) for 5 days weekly during the ninth to fifteenth week after wrinkling. During the sixteenth and seventeenth week after wrinkling, about 0.5 ml of squalene-OOH, an oxidation product of squalene by UV irradiation, was applied once using a brush to induce deeper wrinkles. Thereafter, the compound or the control was applied to each mouse twice daily for 14 days."}, "[3]": {"test_system": "matrix metalloproteinase-1 (MMP-1) expression in normal human dermal fibroblasts", "assay": "Inhibition of MMP-1 expression in normal human dermal fibroblasts", "format": "cell-based", "details": "NHDF, negative control 189.7±10.9%, p<0.01", "procedure": "Effects by mirodenafil hydrochloride, test compound, on inhibition of matrix metalloproteinase-1 (MMP-1) expression was evaluated with normal human dermal fibroblasts.\n(−)Epigallocatechin gallate (EGCG) (Sigma-Aldrich Co., U.S.A.) was used as a positive control because there are lots of comparative experimental data using the EGCG. EGCG has been reported to be effective in inhibition of MMP-1 expression when evaluating with fibroblasts. DMSO (Dimethyl sulfoxide) was used as a diluent.\nas §1\nFor making a positive control, 10,000 μM (4.584 mg/mL) of EGCG was prepared by dissolving it with serum-free medium, and then the solution was diluted to 10 μM (0.0046 mg/mL).\nBCA protein assay kit (Lot No.: KK140637, Pierce Biotechnology Inc., USA) was used for total protein analysis, and matrix metalloproteinase-1 (MMP-1), human, biotrak ELISA system kit (Lot No.: 398061, GE Healthcare, UK) was used for MMP-1 analysis.\nThe contents of MMP-1 in wells to which negative control, test compound or positive control was added were divided by the content of total protein. The adjusted content of MMP-1 was used to calculate “Inhibition rate of MMP-1 expression” with the following equation. This test was repeated three times. Inhibition rate of MMP-1 expression (%)=A/B×100\nA: MMP-1 amount of sample or positive control\nB: MMP-1 amount of negative control\nThe other materials and methods which were not mentioned in detail were similar to those of Example 3."}}, "note": "Structures can show the parent of a compound that is named as a salt."}
{"compound": "O=C1O[C@H]([C@@H](O)CO)C(O)=C1O", "note": "[L-Ascorbic acid]", "values": [{"measurement": "Synthesis rate of procollagen type I", "setting": "[1]; 35.2 μg/mL (200 μM)", "result": "175.7±11.5", "unit": "%"}]}
{"compound": "CCCOc1ccc(S(=O)(=O)N2CCN(CCO)CC2)cc1-c1nc2c(CCC)cn(CC)c2c(=O)[nH]1.Cl.Cl", "note": "[mirodenafil 2HCl]", "values": [{"measurement": "Wrinkle reduction (skin photographs)", "setting": "[2]", "result": "Wrinkle reduction was observed"}]}
{"compound": "CCCOc1ccc(S(=O)(=O)N2CCN(CCO)CC2)cc1-c1nc2c(CCC)cn(CC)c2c(=O)[nH]1", "note": "[mirodenafil free base, mirodenafil]", "values": [{"measurement": "Wrinkle reduction (skin photographs)", "setting": "[2]", "result": "Wrinkle reduction was observed"}]}
{"compound": "CCCOc1ccc(S(=O)(=O)N2CCN(CCO)CC2)cc1-c1nc2c(CCC)cn(CC)c2c(=O)[nH]1", "note": "[mirodenafil hydrochloride]", "values": [{"measurement": "Synthesis rate of procollagen type I", "setting": "[1]; 10 nM", "result": "149.7±12.4", "unit": "%"}, {"measurement": "Synthesis rate of procollagen type I", "setting": "[1]; 100 nM", "result": "189.8±6.4", "unit": "%"}, {"measurement": "MMP-1 expression (% of control)", "setting": "[3]; 10 nM", "result": "115.8±9.1", "unit": "%"}, {"measurement": "MMP-1 expression (% of control)", "setting": "[3]; 100 nM", "result": "97.9±8.5", "unit": "%"}]}
{"compound": "CC1=C(/C=C/C(C)=C/C=C/C(C)=C/C(=O)O)C(C)(C)CCC1", "note": "[retinoic acid]", "values": [{"measurement": "Formation and peeling of cornified layers of the skin", "setting": "[2]; 0.05%, topical, twice then once daily", "result": "Cornified layers were formed and continuously peeled"}]}
{"compound": "(−)Epigallocatechin gallate [EGCG]", "values": [{"measurement": "MMP-1 expression (% of control)", "setting": "[3]; 0.0046 mg/mL (10 μM)", "result": "102.3±18.7", "unit": "%"}]}
